Results published in US9376425B2, “Heterocyclic compounds as MDM2 inhibitors for the treatment of cancer” (AMGEN INC., priority 2011, dated 2016).
pIC50: −log10 of the molar value.

Target: T1, human MDM2 (GST-hMDM2 1-188), interaction with biotinylated-p53 (1-83) (Homo sapiens, UniProt Q00987)
T1 construct: Amino acid residues 1-188 of human MDM2 were expressed; made in house; host or cells: Escherichia coli
Assay: improved HTRF assay (HTRF2 assay), inhibition of HDM2-p53 interaction
Format: binding
Settings: 0.2 nM GST-hMDM2, 0.5 nM biotinylated-p53, 100 mM KF
Procedure, shortened: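 Time-resolved fluorescence (HTRF) read after >4 h equilibration with SA-XLent/anti-GST cryptate/KF detection reagents. Reaction: compound plus GST-hMDM2 for 20 min at room temperature, then E. coli-expressed biotinylated p53 residues 1-83 for 60 min, 2% DMSO final. Inhibition expressed versus nutlin-3.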

T1 sequence (Q00987 1-188): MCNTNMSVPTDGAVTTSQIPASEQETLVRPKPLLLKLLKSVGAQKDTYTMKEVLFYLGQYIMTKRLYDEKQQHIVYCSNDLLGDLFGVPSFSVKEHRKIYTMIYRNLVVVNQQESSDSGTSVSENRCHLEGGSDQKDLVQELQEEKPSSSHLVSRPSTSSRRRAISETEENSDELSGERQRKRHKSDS

Row | SMILES | pIC50
1 | NC(=O)C[C@H]1O[C@H](c2cccc(Cl)c2)[C@@H](c2ccc(Cl)cc2)N([C@H](CN(c2ccccc2)S(=O)(=O)C2CC2)C2CC2)C1=O (single isomer, unassigned) [Example 360, 2-((2R,5R,6R)-6-(3-Chlorophenyl)-5-(4-chlorophenyl)-4-((S)-1-cyclopropyl-2-(N-phenylcyclopropanesulfonamido)ethyl)-3-oxomorpholin-2-yl)acetamide or 2-((2S,5R,6R)-6-(3-chlorophenyl)-5-(4-chlorophenyl)-4-((S)-1-cyclopropyl-2-(N-phenylcyclopropanesulfonamido)ethyl)-3-oxomorpholin-2-yl)acetamide] | 9.00
2 | NC(=O)C[C@H]1O[C@H](c2cccc(Cl)c2)[C@@H](c2ccc(Cl)cc2)N([C@H](CN(c2ccccc2)S(=O)(=O)C2CC2)C2CC2)C1=O (single isomer, unassigned) [Example 361, 2-((2R,5R,6R)-6-(3-Chlorophenyl)-5-(4-chlorophenyl)-4-((S)-1-cyclopropyl-2-(N-phenylcyclopropanesulfonamido)ethyl)-3-oxomorpholin-2-yl)acetamide or 2-((2S,5R,6R)-6-(3-chlorophenyl)-5-(4-chlorophenyl)-4-((S)-1-cyclopropyl-2-(N-phenylcyclopropanesulfonamido)ethyl)-3-oxomorpholin-2-yl)acetamide] | > 9.00
3 | CC(C)(C)S(=O)(=O)C[C@H](CC(F)(F)F)N1C(=O)[C@@H](CC(N)=O)O[C@H](c2cccc(Cl)c2)[C@H]1c1ccc(Cl)cc1 (single isomer, unassigned) [Example 362, 2-((2R,5R,6R)-4-((S)-1-(tert-Butylsulfonyl)-4,4,4-trifluorobutan-2-yl)-6-(3-chlorophenyl)-5-(4-chlorophenyl)-3-oxomorpholin-2-yl)acetamide or 2-((2S,5R,6R)-4-((S)-1-(tert-butylsulfonyl)-4,4,4-trifluorobutan-2-yl)-6-(3-chlorophenyl)-5-(4-chlorophenyl)-3-oxomorpholin-2-yl)acetamide] | 7.70
4 | CC(C)(C)S(=O)(=O)C[C@H](CC(F)(F)F)N1C(=O)[C@@H](CC(N)=O)O[C@H](c2cccc(Cl)c2)[C@H]1c1ccc(Cl)cc1 (single isomer, unassigned) [Example 363, 22-((2R,5R,6R)-4-((S)-1-(tert-Butylsulfonyl)-4,4,4-trifluorobutan-2-yl)-6-(3-chlorophenyl)-5-(4-chlorophenyl)-3-oxomorpholin-2-yl)acetamide or 2-((2S,5R,6R)-4-((S)-1-(tert-butylsulfonyl)-4,4,4-trifluorobutan-2-yl)-6-(3-chlorophenyl)-5-(4-chlorophenyl)-3-oxomorpholin-2-yl)acetamide] | 7.64
5 | CNC(=O)C[C@H]1O[C@H](c2cccc(Cl)c2)[C@@H](c2ccc(Cl)cc2)N([C@H](CN(c2ccccc2F)S(=O)(=O)C2CC2)C2CC2)C1=O (single isomer, unassigned) [Example 364, 2-((2R,5R,6R)-6-(3-Chlorophenyl)-5-(4-chlorophenyl)-4-((S)-1-cyclopropyl-2-(N-(2-fluorophenyl)cyclopropanesulfonamido)ethyl)-3-oxomorpholin-2-yl)-N-methylacetamide or 2-((2S,5R,6R)-6-(3-chlorophenyl)-5-(4-chlorophenyl)-4-((S)-1-cyclopropyl-2-(N-(2-fluorophenyl)cyclopropanesulfonamido)ethyl)-3-oxomorpholin-2-yl)-N-methylacetamide] | > 9.00
6 | CNC(=O)C[C@H]1O[C@H](c2cccc(Cl)c2)[C@@H](c2ccc(Cl)cc2)N([C@H](CN(c2ccccc2F)S(=O)(=O)C2CC2)C2CC2)C1=O (single isomer, unassigned) [Example 365, 2-((2R,5R,6R)-6-(3-Chlorophenyl)-5-(4-chlorophenyl)-4-((S)-1-cyclopropyl-2-(N-(2-fluorophenyl)cyclopropanesulfonamido)ethyl)-3-oxomorpholin-2-yl)-N-methylacetamide or 2-((2S,5R,6R)-6-(3-chlorophenyl)-5-(4-chlorophenyl)-4-((S)-1-cyclopropyl-2-(N-(2-fluorophenyl)cyclopropanesulfonamido)ethyl)-3-oxomorpholin-2-yl)-N-methylacetamide] | 8.70
7 | CN(C)C(=O)C[C@H]1O[C@H](c2cccc(Cl)c2)[C@@H](c2ccc(Cl)cc2)N([C@H](CN(c2ccccc2F)S(=O)(=O)C2CC2)C2CC2)C1=O (single isomer, unassigned) [Example 366, 2-((2R,5R,6R)-6-(3-Chlorophenyl)-5-(4-chlorophenyl)-4-((S)-1-cyclopropyl-2-(N-(2-fluorophenyl)cyclopropanesulfonamido)ethyl)-3-oxomorpholin-2-yl)-N,N-dimethylacetamide or 2-((2S,5R,6R)-6-(3-chlorophenyl)-5-(4-chlorophenyl)-4-((S)-1-cyclopropyl-2-(N-(2-fluorophenyl)cyclopropanesulfonamido)ethyl)-3-oxomorpholin-2-yl)-N,N-dimethylacetamide] | > 9.00
8 | CN(C)C(=O)C[C@H]1O[C@H](c2cccc(Cl)c2)[C@@H](c2ccc(Cl)cc2)N([C@H](CN(c2ccccc2F)S(=O)(=O)C2CC2)C2CC2)C1=O (single isomer, unassigned) [Example 367, 2-((2R,5R,6R)-6-(3-Chlorophenyl)-5-(4-chlorophenyl)-4-((S)-1-cyclopropyl-2-(N-(2-fluorophenyl)cyclopropanesulfonamido)ethyl)-3-oxomorpholin-2-yl)-N,N-dimethylacetamide or 2-((2S,5R,6R)-6-(3-chlorophenyl)-5-(4-chlorophenyl)-4-((S)-1-cyclopropyl-2-(N-(2-fluorophenyl)cyclopropanesulfonamido)ethyl)-3-oxomorpholin-2-yl)-N,N-dimethylacetamide] | 8.40
9 | O=C(C[C@H]1O[C@H](c2cccc(Cl)c2)[C@@H](c2ccc(Cl)cc2)N([C@H](CN(c2ccccc2F)S(=O)(=O)C2CC2)C2CC2)C1=O)Nc1ccccn1 (single isomer, unassigned) [Example 368, 2-((2R,5R,6R)-6-(3-Chlorophenyl)-5-(4-chlorophenyl)-4-((S)-1-cyclopropyl-2-(N-(2-fluorophenyl)cyclopropanesulfonamido)ethyl)-3-oxomorpholin-2-yl)-N-(pyridin-2-yl)acetamide or 2-((2S,5R,6R)-6-(3-chlorophenyl)-5-(4-chlorophenyl)-4-((S)-1-cyclopropyl-2-(N-(2-fluorophenyl)cyclopropanesulfonamido)ethyl)-3-oxomorpholin-2-yl)-N-(pyridin-2-yl)acetamide] | > 9.00
10 | O=C(C[C@H]1O[C@H](c2cccc(Cl)c2)[C@@H](c2ccc(Cl)cc2)N([C@H](CN(c2ccccc2F)S(=O)(=O)C2CC2)C2CC2)C1=O)Nc1ccccn1 (single isomer, unassigned) [Example 369, 2-((2R,5R,6R)-6-(3-Chlorophenyl)-5-(4-chlorophenyl)-4-((S)-1-cyclopropyl-2-(N-(2-fluorophenyl)cyclopropanesulfonamido)ethyl)-3-oxomorpholin-2-yl)-N-(pyridin-2-yl)acetamide or 2-((2S,5R,6R)-6-(3-chlorophenyl)-5-(4-chlorophenyl)-4-((S)-1-cyclopropyl-2-(N-(2-fluorophenyl)cyclopropanesulfonamido)ethyl)-3-oxomorpholin-2-yl)-N-(pyridin-2-yl)acetamide] | 8.10
